SMILES strings stand for the structures.

Experimental findings from patent publication US9351956B1, “Pharmaceutical composition comprising an enantiomer of lipoamide and derivatives thereof and method of use” (GeroNova Research Inc., priority 2012, dated 2016) are described below.

Assay type in all cases: cell-based
What all share (settings): HepG2 cells, 0.2 mM, 8 hours, 5.5 mM glucose

Test [1] deals with Antioxidant Response Element (ARE). Briefly: dual-luciferase reporter array, ARE. How it is done: (§1) Nine test compounds were synthesized and characterized. The effects of R, S and RS forms of LA, LAM and LAP on multiple signaling pathways were studied in HepG2 cells at 0.2 mM for 8 hours (5.5 mM glucose) using a dual-luciferase reporter array. The reporter is a mixture of Firefly Luciferase gene construct under control of an inducible transcription factor-responsive promoter and an internal control plasmid constitutively expressing Renilla luciferase gene. Each inducible construct monitors changes in the activity of a select transcription factor serving as a marker for activation or suppression of a specific signaling pathway.
A general note: Reporter assays use an easily measured gene product as a stand-in for the process of interest.

The subject of test [2] is progesterone receptor (PR). Briefly: dual-luciferase reporter array, PR. The protocol: as §1
A further test has as its system heat shock factor (HSF). Briefly: dual-luciferase reporter array, HSF. The protocol:
as §1

Test [3] has as its system xenobiotic response element (XRE). Briefly: dual-luciferase reporter array, XRE. How it is done: as §1
The next test deals with C/EBP. Briefly: dual-luciferase reporter array, C/EBP. The protocol: as §1
The next test has as its system PI3K/AKT. Briefly: dual-luciferase reporter array, FOXO reporter as inverse marker for PI3K/AKT. The protocol:
as §1
This above studies identified previously unknown enantioselective and non-enantioselective pathways differentially affected by LA and amide derivatives. In some cases the racemic compounds activate pathways not activated by either enantiomer. […] The heavy metal response pathway was similarly affected by all nine compounds, which lowered values below control levels. […] The greatest increase in activity of a pathway by all compounds was activation of the Antioxidant Response Element (ARE) but the magnitude varied widely by compound. […] Activation of FOXO transcription factors is repressed by AKT phosphorylation and thus functions as an inverse marker for PI3K/AKT activity, such that low pathway activity increases the magnitude of the FOXO reporter.

In test [4] the test system is retinoic acid response element (RAR). Briefly: dual-luciferase reporter array, RAR. How it is done: as §1
The test system of test [5] is peroxisome proliferator-activated receptor (PPAR). Briefly: dual-luciferase reporter array, PPAR. The protocol:
as §1

Turning to `NC(=O)CCCC[C@@H]1CCSS1` [RLAM, R-(+)-lipoamide], the “ARE response (activation)” value in test [1] was “strongest ARE response”. For the same molecule, the PR activation entry in test [2] is recorded as “selectively activates”.
Turning to `NC(=O)CCCC[C@H]1CCSS1` [SLAM, S-(−)-lipoamide], the “ARE response (activation)” value in test [1] is on record as “activated”. Besides, the HSF activation entry in the test on heat shock factor (HSF) is recorded as “activated”. Moreover, the XRE induction result in test [3] is “induced”.
Take `O=C(O)CCCC[C@@H]1CCSS1` [RLA, R-(+)-lipoic acid]: the C/EBP activation result in the test on C/EBP is “selectively activates”. In the test on PI3K/AKT, the “PI3K/AKT activation (inverse of FOXO reporter response)” value is given as “strongly activates”. Besides, in test [4], the RAR activation entry is on record as “selectively activates”.
`O=C(O)CCCC[C@H]1CCSS1` [SLA, S-(−)-lipoic acid]: the PPAR activity entry in test [5] was “lowered”. Also, the “PI3K/AKT activation (inverse of FOXO reporter response)” value in the test on PI3K/AKT is “minimal”.
On to `CN(C)CCNC(=O)CCCC[C@H]1CCSS1` [SLAP], for which the XRE induction result in test [3] is given as “induced”.
